Assay results as given in patent US9157062B2, “Compositions and methods for promoting the generation of PDX1+ pancreatic cells” (President and Fellows of Harvard College, priority 2008, dated 2015).
Where a name gives a salt, the structure may show the parent alone. Read-outs that look alike come from different tables or passages of the source.

Assays:
[1] = test system: HUES8-derived population (Pdx1+ cells); assay: Pdx1 antibody staining of treated HUES8-derived population; type: cell-based, human; details: for percentage of Pdx1+ cells, PKC antagonists in the presence of ILV: 300 nM ILV plus 1 μM BISI or 10 μM Gö 6983, 4 days; for percentage of Pdx1+ cells, PKC agonists in the absence of ILV: HUES8-derived definitive endoderm population, 500 nM TPB or 14 nM PMA
Description: (§1) To generate a starting population, HUES cells were cultured on MEF feeder cells until 80-90% confluent, then treated with 25 ng/ml Wnt3a (R&D systems)+100 ng/ml Activin A (R&D systems) in advanced RPMI (A-RPMI, Invitrogen) supplemented with 1×L-Glu and 1×PS for 1 day, and then 100 ng/ml Activin A in A-RPMI supplemented with 1×L-Glu, 1×PS and 0.2% FBS (Invitrogen). Two days later, the media was changed to 50 ng/ml FGF10 (R&D systems)+0.25 μM KAAD-CYC (Calbiochem) in A-RPMI supplemented with 1×L-Glu, 1×PS and 2% FBS and maintained for additional 2 days. Cells were then transferred to 50 ng/ml FGF10+0.25 μM KAAD-CYC+2 μM RA (Sigma) in DMEM supplemented with 1×L-Glu, 1×PS, 1×B27 (Invitrogen) and cultured for an additional 4 days. ILV was obtained from Axxora, KAAD-CYC, TPB, PMA, BISI, Gö 6983, U0126 and PD98059 were obtained from Calbiochem and RA were obtained from Sigma.
(§2) Cells were fixed with 10% formalin solution (Sigma) for 20 min at room temperature. Immunostaining was carried out with standard protocols. The following primary antibodies were used: goat anti-Pdx1 (1:500; R&D system); rabbit anti-FOXA2 (1:500; Upstate); rabbit anti-HNF6 (1:200; Santa Cruz Biotech); guinea pig anti-insulin (1:1000; Dako); rabbit anti-c-peptide (1:500; Linco); rabbit anti-amylase (1:200, Sigma); goat anti-HNF1β (1:100, Santa Cruz Biotech); and biotinylated DBA (1:400; Vector Lab). Alexa-488-, Alexa-555, and Alexa-647-conjugated donkey antibodies against mouse, rabbit, guinea pig and goat, and Pacific Blue conjugate-streptavidin (Invitrogen) were used at 1:300 dilution.
To determine whether PKC signaling is being activated in HUES-derived cells, HUES8-derived definitive endoderm population was treated with two PKC agonists, TPB ((2S,5S)-(E,E)-8-(5-(4-(trifluoromethyl)phenyl)-2,4-pentadienoylamino)benzolactam) and PMA (phorbol-12-myristate-13-acetate), in the absence of ILV. […] Furthermore, HUES8-derived population was treated with two PKC antagonists, BISI (Bisindolylmaleimide I) and Gö 6983, in the presence of ILV.
Experiments were performed to monitor downstream signaling by PKC. Since ERK signaling has been reported to be regulated by PKC (Ueda et al., 1996), the activity of ERK signaling was examined with Western blotting to detect the phosphorylation of ERK1/2 at Thr-202/Tyr-204.

[2] = test system: HUES9-derived population (Pdx1+ cells); assay: High throughput screen for compounds increasing Pdx1+ cells; type: cell-based, human; details: HUES9-derived cells, 10 μM, 1 μM and 0.1 μM, four days
Description: as §1
For a high throughput screen, the starting material was hESCs (HUES9 cells) that were induced to pancreatic lineage using a slightly modified version of previously published protocols (D'Amour et al., 2006; Jiang et al., 2007), as described in Example 1. After 9 days of stepwise differentiation, a heterogeneous population of cells was generated containing cells that stained strongly, weakly or not at all with a Pdx1 antibody. Any cell that stained with the Pdx1 staining antibody was counted as Pdx1^+ cells regardless of staining intensity. Together, the Pdx1^+ cells comprises 5.1±1.8% of the total cell number.
To carry out the screen, the cells were trypsinized and plated on 804G-coated 384-well plates at 6000 cells/well using chemically defined media (DMEM supplemented with 2 mM L-Glu, 1×PS, 1×B27). After overnight incubation, compounds were screened by adding them to provide a final concentration of 10 μM, 1 μM and 0.1 μM. Four days later, the cells were stained with Pdx1 antibody and the plates were analyzed with Opera high content screening system (PerkinElmer).
The wells in which the percentage of Pdx1^+ cells is higher than present at day 1 and higher than day 5 treated with DMSO were selected as primary hits. Compounds that increase both the number and percentage of Pdx1^+ cells were picked as primary hits. Eleven compounds produced hits. (FIG. 7, Table I in FIG. 9 and formulas in FIG. 10). These eleven compounds were (−)-Indolactam V (FIG. 1c and Compound I in Table 1) boldine (Compound II), rotenone (Compound III), ethopropazine hydrochloride (Compound IV), cedrelone (Compound V), prieurianin (Compound VI), strophanthidin (Compound VII), trimeprazine tartrate (Compound VIII), terconazole (Compound IX), dimethisoquin hydrochloride (Compound X), harmine hydrochloride (Compound XI).
as §2

[3] = target: T1, PKCμ (Homo sapiens, UniProt Q15139); details: Gschwendt et al., 1996; cited from earlier work
T1 sequence (Q15139 1-912): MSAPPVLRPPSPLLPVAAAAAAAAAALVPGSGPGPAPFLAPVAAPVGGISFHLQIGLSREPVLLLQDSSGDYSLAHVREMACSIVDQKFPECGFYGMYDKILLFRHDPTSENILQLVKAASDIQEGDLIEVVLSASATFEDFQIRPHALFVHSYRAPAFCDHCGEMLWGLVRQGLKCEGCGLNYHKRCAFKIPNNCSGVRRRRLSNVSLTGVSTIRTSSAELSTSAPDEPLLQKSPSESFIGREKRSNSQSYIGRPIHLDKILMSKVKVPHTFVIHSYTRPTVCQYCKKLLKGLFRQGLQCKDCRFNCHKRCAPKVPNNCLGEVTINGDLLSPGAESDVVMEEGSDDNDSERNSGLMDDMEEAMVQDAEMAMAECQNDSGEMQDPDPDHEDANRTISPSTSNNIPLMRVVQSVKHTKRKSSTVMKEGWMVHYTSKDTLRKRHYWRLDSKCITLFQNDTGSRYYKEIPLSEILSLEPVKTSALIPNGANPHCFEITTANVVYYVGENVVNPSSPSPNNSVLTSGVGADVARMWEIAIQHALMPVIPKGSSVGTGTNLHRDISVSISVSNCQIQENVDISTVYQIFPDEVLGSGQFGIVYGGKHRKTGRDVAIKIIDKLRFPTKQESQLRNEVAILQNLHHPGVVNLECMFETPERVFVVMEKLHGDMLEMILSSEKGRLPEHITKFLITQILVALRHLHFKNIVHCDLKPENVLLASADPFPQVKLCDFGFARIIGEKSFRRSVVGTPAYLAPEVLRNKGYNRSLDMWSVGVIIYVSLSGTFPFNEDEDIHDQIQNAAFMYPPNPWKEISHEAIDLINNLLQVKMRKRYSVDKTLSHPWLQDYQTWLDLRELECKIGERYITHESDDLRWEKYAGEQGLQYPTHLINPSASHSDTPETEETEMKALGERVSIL

CN(C)CCCn1cc(C2=C(c3c[nH]c4ccccc34)C(=O)NC2=O)c2ccccc21 [BISI, Bisindolylmaleimide I]
percentage of Pdx1+ cells, PKC antagonists in the presence of ILV ([1]; HUES8-derived population): 0.6±0.1%

COc1cccc(-c2cc(=O)c3ccccc3o2)c1N [PD098059]
percentage of Pdx1+ cells, MEK/ERK inhibitors together with ILV ([1]; 300 nM ILV plus 50 μM PD098059 or 10 μM U0126, 4 days): 0.4±0.2%

COc1ccc2c(c1)[nH]c1c(C)nccc12.Cl [Compound XI, harmine hydrochloride]
primary hits (increase both the number and percentage of Pdx1+ cells) [2]: hits

trimeprazine tartrate [Compound VIII]
primary hits (increase both the number and percentage of Pdx1+ cells) [2]: hits

CCCCCCCCCCCCCC(=O)O[C@@H]1[C@@H](C)[C@@]2(O)[C@@H](C=C(CO)C[C@]3(O)C(=O)C(C)=C[C@@H]23)[C@@H]2C(C)(C)[C@]12OC(C)=O [PMA, phorbol-12-myristate-13-acetate]
percentage of Pdx1+ cells, PKC agonists in the absence of ILV ([1]; 4 days): 21.3±4.0%

CC(C)[C@H]1C(=O)N[C@H](CO)Cc2cc(NC(=O)/C=C/C=C/c3ccc(C(F)(F)F)cc3)ccc2N1C [TPB, (2S,5S)-(E,E)-8-(5-(4-(trifluoromethyl)phenyl)-2,4-pentadienoylamino)benzolactam]
percentage of Pdx1+ cells, PKC agonists in the absence of ILV ([1]; 4 days): 15.4±2.9%

COc1ccc2c(c1)c(C1=C(c3c[nH]c4ccccc34)C(=O)NC1=O)cn2CCCN(C)C [Gö 6983]
suppression of PKCμ kinase activity [3]: not effective | percentage of Pdx1+ cells, PKC antagonists in the presence of ILV ([1]; HUES8-derived population): 0.8±0.2%

CC(C)N1CCN(c2ccc(OCC3COC(Cn4cncn4)(c4ccc(Cl)cc4Cl)O3)cc2)CC1 (stereo not drawn) [Compound IX, terconazole]
primary hits (increase both the number and percentage of Pdx1+ cells) [2]: hits

C[C@]12CC[C@H]3[C@@H](CC[C@]4(O)C[C@@H](O)CC[C@]34C=O)[C@@]1(O)CC[C@@H]2C1=CC(=O)OC1 [Compound VII, strophanthidin]
primary hits (increase both the number and percentage of Pdx1+ cells) [2]: hits

CCCCc1cc2ccccc2c(OCCN(C)C)n1 [Compound X, dimethisoquin hydrochloride]
primary hits (increase both the number and percentage of Pdx1+ cells) [2]: hits

COc1cc2c(cc1O)C[C@H]1c3c(cc(O)c(OC)c3-2)CCN1C [Compound II, boldine]
primary hits (increase both the number and percentage of Pdx1+ cells) [2]: hits

C=C(C)[C@H]1Cc2c(ccc3c2O[C@@H]2COc4cc(OC)c(OC)cc4[C@@H]2C3=O)O1 [Compound III, rotenone]
primary hits (increase both the number and percentage of Pdx1+ cells) [2]: hits

C=C1[C@@H]([C@@]2(C)[C@@H](OC(C)=O)CC(=O)O[C@](C)(COC(C)=O)[C@@H]2C(=O)OC)[C@@H](OC=O)[C@H](OC(=O)[C@H](O)[C@H](C)CC)[C@@]2(C)[C@H](c3ccoc3)CC(=O)[C@]12O [Compound VI, prieurianin]
primary hits (increase both the number and percentage of Pdx1+ cells) [2]: hits

N#CC(=C(/N)Sc1ccccc1N)/C(C#N)=C(\N)Sc1ccccc1N [Compound U0126]
percentage of Pdx1+ cells, MEK/ERK inhibitors together with ILV [1]: 0.3±0.2%

CCN(CC)C(C)CN1c2ccccc2Sc2ccccc21 (stereo not drawn) [Compound IV, ethopropazine hydrochloride]
primary hits (increase both the number and percentage of Pdx1+ cells) [2]: hits

CC1(C)C(=O)C=C[C@@]2(C)C1=C(O)C(=O)[C@]1(C)[C@@H]2CC[C@@]2(C)[C@H](c3ccoc3)C[C@H]3O[C@]321 [Compound V, cedrelone]
primary hits (increase both the number and percentage of Pdx1+ cells) [2]: hits

B1: FGF10: mitogen (fibroblast growth factor) reported to be involved in pancreatic development, from R&D systems (protein, UniProt O15520 38-208, looked up)
Fibroblast growth factor 10: QALGQDMVSPEATNSSSSSFSSPSSAGRHVRSYNHLQGDVRWRKLFSFTKYFLKIEKNGKVSGTKKENCPYSILEITSVEIGVVAVKAINSNYYLAMNKKGKLYGSKEFNNDCKLKERIEENGYNTYASFNWQHNGRQMYVALNGKGAPRRGQKTRRKNTSAHFLPMVVHS
percentage of cells stained by Pdx1 antibody ([1]; HUES8-derived population, 4 days, 300 nM ILV and/or 50 ng/ml FGF10): 5.7±2.3%
